Measurements as given in patent US7772183B2 (Bristol-Myers Squibb Company, priority 2005, dated 2010).

Columns and labels:
[1] = target: T1, HCV NS3/4A protease complex, BMS strain (UniProt P27958, species not given/STRAIN_BMS); assay: FRET peptide assay to monitor HCV NS3/4A proteolytic activity (BMS strain); type: biochemical, Hepatitis C virus (genotype 1a); settings: NS3/4A BMS strain; read-out: IC50 Range
T1 construct: said of H77 and J4L6S; fused on or other part: A three-lysine solubilising tail at the C-terminus of NS4A and a His tag (pET21b, Ni-NTA purification)
Text: HCV NS3 protease complexes, derived from the BMS strain, H77 strain or J4L6S strain, were generated, as described below. These purified recombinant proteins were generated for use in a homogeneous assay (see below) to provide an indication of how effective compounds of the present disclosure would be in inhibiting HCV NS3 proteolytic activity.
Serum from an HCV-infected patient was obtained from Dr. T. Wright, San Francisco Hospital. An engineered full-length cDNA (compliment deoxyribonucleic acid) template of the HCV genome (BMS strain) was constructed from DNA fragments obtained by reverse transcription-PCR (RT-PCR) of serum RNA (ribonucleic acid) and using primers selected on the basis of homology between other genotype 1a strains. From the determination of the entire genome sequence, a genotype 1a was assigned to the HCV isolate according to the classification of Simmonds et al. (See P Simmonds, K A Rose, S Graham, S W Chan, F McOmish, B C Dow, E A Follett, P L Yap and H Marsden, J. Clin. Microbiol., 31(6), 1493-1503 (1993)). […] The infectious clones, H77 (1a genotype) and J4L6S (1b genotype) were obtained from R. Purcell (NIH) and the sequences are published in Genbank (AAB67036, see Yanagi, M., Purcell, R. H., Emerson, S. U. and Bukh, J. Proc. Natl. Acad. Sci. U.S.A. 94(16), 8738-8743 (1997); AF054247, see Yanagi, M., St Claire, M., Shapiro, M., Emerson, S. U., Purcell, R. H. and Bukh, J, Virology 244 (1), 161-172. (1998)).
The H77 and J4L6S strains were used for production of recombinant NS3/4A protease complexes. DNA encoding the recombinant HCV NS3/4A protease complex (amino acids 1027 to 1711) for these strains were manipulated as described by P. Gallinari et al. (see Gallinari P, Paolini C, Brennan D, Nardi C, Steinkuhler C, De Francesco R. Biochemistry. 38(17):5620-32, (1999)). Briefly, a three-lysine solubilizing tail was added at the 3′-end of the NS4A coding region. The cysteine in the P1 position of the NS4A-NS4B cleavage site (amino acid 1711) was changed to a glycine to avoid the proteolytic cleavage of the lysine tag. Furthermore, a cysteine to serine mutation was introduced by PCR at amino acid position 1454 to prevent the autolytic cleavage in the NS3 helicase domain. The variant DNA fragment was cloned in the pET21b bacterial expression vector (Novagen) and the NS3/4A complex was expressed in Escherichia coli strain BL21 (DE3) (Invitrogen) following the protocol described by P. Gallinari et al. (see Gallinari P, Brennan D, Nardi C, Brunetti M, Tomei L, Steinkuhler C, De Francesco R., J Virol. 72(8):6758-69 (1998)) with modifications. Briefly, the NS3/4A protease complex expression was induced with 0.5 mM Isopropyl β-D-1-thiogalactopyranoside (IPTG) for 22 hours (h) at 20° C. A typical fermentation (1 Liter (L)) yielded approximately 10 grams (g) of wet cell paste. The cells were resuspended in lysis buffer (10 mL/g) consisting of 25 mM N-(2-Hydroxyethyl)Piperazine-N′-(2-Ethane Sulfonic acid) (HEPES), pH 7.5, 20% glycerol, 500 mM Sodium Chloride (NaCl), 0.5% Triton X-100, 1 microgram/milliliter (“μg/mL”) lysozyme, 5 mM Magnesium Chloride (MgCl2), 1 μg/ml Dnasel, 5 mM β-Mercaptoethanol (βME), Protease inhibitor-Ethylenediamine Tetraacetic acid (EDTA) free (Roche), homogenized and incubated for 20 minutes (min) at 4° C. The homogenate was sonicated and clarified by ultra-centrifugation at 235000 g for 1 h at 4° C. Imidazole was added to the supernatant to a final concentration of 15 mM and the pH adjusted to 8.0. The crude protein extract was loaded on a Nickel-Nitrilotriacetic acid (Ni-NTA) column pre-equilibrated with buffer B (25 mM HEPES, pH 8.0, 20% glycerol, 500 mM NaCl, 0.5% Triton X-100, 15 mM imidazole, 5 mM βME). The sample was loaded at a flow rate of 1 mL/min. The column was washed with 15 column volumes of buffer C (same as buffer B except with 0.2% Triton X-100). The protein was eluted with 5 column volumes of buffer D (same as buffer C except with 200 mM Imidazole). […]

[2] = test system: HCV replicon in HUH-7 cells; assay: HCV replicon FRET assay; type: cell-based, Hepatitis C virus (strain 1b); settings: Hepatitis C virus, Huh-7; HCV replicon, for compounds tested; read-out: EC50 Range
Text: An HCV replicon whole cell system was established as described by Lohmann V, Komer F, Koch J, Herian U, Theilmann L, Bartenschlager R., Science 285(5424):110-3 (1999). This system enabled us to evaluate the effects of our HCV Protease compounds on HCV RNA replication. Briefly, using the HCV strain 1b sequence described in the Lohmann paper (Assession number: AJ238799), an HCV cDNA was synthesized by Operon Technologies, Inc. (Alameda, Calif.), and the full-length replicon was then assembled in plasmid pGem9zf(+) (Promega, Madison, Wis.) using standard molecular biology techniques. The replicon consists of (i) the HCV 5′ UTR fused to the first 12 amino acids of the capsid protein, (ii) the neomycin phosphotransferase gene (neo), (iii) the IRES from encephalomyocarditis virus (EMCV), and (iv) HCV NS3 to NS5B genes and the HCV 3′ UTR. Plasmid DNAs were linearized with Scal and RNA transcripts were synthesized in vitro using the T7 MegaScript transcription kit (Ambion, Austin, Tex.) according to manufacturer's directions. In vitro transcripts of the cDNA were transfected into the human hepatoma cell line, HUH-7. […] Resulting cell lines were characterized for positive and negative strand RNA production and protein production over time.
The HCV replicon FRET assay was developed to monitor the inhibitory effects of compounds described in the disclosure on HCV viral replication. HUH-7 cells, constitutively expressing the HCV replicon, were grown in Dulbecco's Modified Eagle Media (DMEM) (Gibco-BRL) containing 10% Fetal calf serum (FCS) (Sigma) and 1 mg/ml G418 (Gibco-BRL). Cells were seeded the night before (1.5×10^4 cells/well) in 96-well tissue-culture sterile plates. Compound and no compound controls were prepared in DMEM containing 4% FCS, 1:100 Penicillin/Streptomysin (Gibco-BRL), 1:100 L-glutamine and 5% DMSO in the dilution plate (0.5% DMSO final concentration in the assay). Compound/DMSO mixes were added to the cells and incubated for 4 days at 37° C. After 4 days, cells were first assessed for cytotoxicity using alamar Blue (Trek Diagnotstic Systems) for a CC50 reading. The toxicity of compound (CC50) was determined by adding 1/10th volume of alamar Blue to the media incubating the cells. After 4 hours, the fluorescence signal from each well was read, with an excitation wavelength at 530 nm and an emission wavelength of 580 nm, using the Cytofluor Series 4000 (Perspective Biosystems). Plates were then rinsed thoroughly with Phosphate-Buffered Saline (PBS) (3 times 150 μl). The cells were lysed with 25 μl of a lysis assay reagent containing an HCV protease substrate (5× cell Luciferase cell culture lysis reagent (Promega #E153A) diluted to 1× with distilled water, NaCl added to 150 mM final, the FRET peptide substrate (as described for the enzyme assay above) diluted to 10 μM final from a 2 mM stock in 100% DMSO. […]. The plate was then placed into the Cytofluor 4000 instrument which had been set to 340 nm excitation/490 nm emission, automatic mode for 21 cycles and the plate read in a kinetic mode. EC50 determinations were carried out as described for the IC50 determinations.

T1 sequence (P27958 1027-1657, change not shown, one chain of several): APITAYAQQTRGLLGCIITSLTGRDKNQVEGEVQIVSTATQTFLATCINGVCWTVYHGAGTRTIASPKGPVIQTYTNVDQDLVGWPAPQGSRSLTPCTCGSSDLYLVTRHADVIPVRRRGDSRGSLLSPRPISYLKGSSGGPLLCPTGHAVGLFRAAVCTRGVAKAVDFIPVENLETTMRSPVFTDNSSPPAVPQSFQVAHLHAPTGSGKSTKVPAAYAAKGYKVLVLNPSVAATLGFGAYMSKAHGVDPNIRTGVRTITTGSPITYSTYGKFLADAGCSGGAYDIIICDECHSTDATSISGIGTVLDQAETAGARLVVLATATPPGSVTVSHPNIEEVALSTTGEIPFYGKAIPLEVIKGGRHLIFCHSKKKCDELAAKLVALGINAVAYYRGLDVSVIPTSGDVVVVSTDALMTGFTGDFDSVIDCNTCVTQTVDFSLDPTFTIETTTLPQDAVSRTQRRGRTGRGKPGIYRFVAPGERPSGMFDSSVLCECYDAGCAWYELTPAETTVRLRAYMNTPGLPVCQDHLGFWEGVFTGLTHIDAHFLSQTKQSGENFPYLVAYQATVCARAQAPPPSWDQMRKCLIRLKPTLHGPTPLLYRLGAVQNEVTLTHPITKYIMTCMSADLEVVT

SMILES | melting point [°C] | IC50 [1] [nM] | EC50 [2] [nM]
CC(C)(C)OC(=O)N[C@H]1CCCOC/C=C\[C@@H]2C[C@@]2(C(=O)NS(=O)(=O)C2CC2)NC(=O)[C@@H]2C[C@@H](OC(=O)C3CCCCC3)CN2C1=O [Compound 3, 18-cyclohexanecarbonyloxy-14-tert-butoxycarbonylamino-4-cyclopropylsulfonylaminocarbonyl-2,15-dioxo-3,16-diaza-10-oxatricyclo-[14.3.0.0^4,6]-nonadec-7-ene] | 128 to 130 | < 100 | > 1000
CC(C)(C)OC(=O)N[C@H]1CCCOC/C=C\[C@@H]2C[C@@]2(C(=O)NS(=O)(=O)C2CC2)NC(=O)[C@@H]2C[C@@H](OC(=O)C(C)(C)C)CN2C1=O [Compound 4, 18-pivaloyloxy-14-tert-butoxycarbonylamino-4-cyclopropylsulfonylaminocarbonyl-2,15-dioxo-3,16-diaza-10-oxatricyclo-[14.3.0.0^4,6]-nonadec-7-ene] | 143 to 145 | < 100 | > 1000
CC(C)(C)OC(=O)N[C@H]1CCCOC/C=C\[C@@H]2C[C@@]2(C(=O)NS(=O)(=O)C2CC2)NC(=O)[C@@H]2C[C@@H](OC(=O)CC3CCCCC3)CN2C1=O [Compound 6, 18-cyclohexaneacetyloxy-14-tert-butoxycarbonylamino-4-cyclopropylsulfonylaminocarbonyl-2,15-dioxo-3,16-diaza-10-oxatricyclo-[14.3.0.0^4,6]-nonadec-7-ene] | 107 to 109 | < 100 | > 1000
COc1ccccc1C(=O)O[C@@H]1C[C@H]2C(=O)N[C@]3(C(=O)NS(=O)(=O)C4CC4)C[C@H]3/C=C\COCCC[C@H](NC(=O)OC(C)(C)C)C(=O)N2C1 [Compound 7, 18-(2-methoxybenzoyloxy)-14-tert-butoxycarbonylamino-4-cyclopropylsulfonylaminocarbonyl-2,15-dioxo-3,16-diaza-10-oxa-tricyclo-[14.3.0.0^4,6]-nonadec-7-ene] | 144 to 146 | < 100 | > 1000
COc1ccc(C(=O)O[C@@H]2C[C@H]3C(=O)N[C@]4(C(=O)NS(=O)(=O)C5CC5)C[C@H]4/C=C\COCCC[C@H](NC(=O)OC(C)(C)C)C(=O)N3C2)c(OC)c1 [Compound 8, 18-(2,4-dimethoxybenzoyloxy)-14-tert-butoxycarbonylamino-4-cyclopropylsulfonylaminocarbonyl-2,15-dioxo-3,16-diaza-10-oxatricyclo-[14.3.0.0^4,6]-nonadec-7-ene] | 122 to 124 | < 100 | 100 to 1000
COc1cccc(C(=O)O[C@@H]2C[C@H]3C(=O)N[C@]4(C(=O)NS(=O)(=O)C5CC5)C[C@H]4/C=C\COCCC[C@H](NC(=O)OC(C)(C)C)C(=O)N3C2)c1 [Compound 9, 18-(3-methoxybenzoyloxy)-14-tert-butoxycarbonylamino-4-cyclopropylsulfonylaminocarbonyl-2,15-dioxo-3,16-diaza-10-oxatricyclo-[14.3.0.0^4,6]-nonadec-7-ene] | 149 to 151 | < 100 | 100 to 1000
COc1ccc(C(=O)O[C@@H]2C[C@H]3C(=O)N[C@]4(C(=O)NS(=O)(=O)C5CC5)C[C@H]4/C=C\COCCC[C@H](NC(=O)OC(C)(C)C)C(=O)N3C2)cc1 [Compound 10, 18-(4-methoxybenzoyloxy)-14-tert-butoxycarbonylamino-4-cyclopropylsulfonylaminocarbonyl-2,15-dioxo-3,16-diaza-10-oxatricyclo-[14.3.0.0^4,6]-nonadec-7-ene] | 145 to 147 | < 100 | 100 to 1000
CC(C)(C)OC(=O)N[C@H]1CCCOC/C=C\[C@@H]2C[C@@]2(C(=O)NS(=O)(=O)C2CC2)NC(=O)[C@@H]2C[C@@H](OC(=O)c3ccc(-c4ccccc4)cc3)CN2C1=O [Compound 11, 18-(4-biphenylcarbonyloxy)-14-tert-butoxycarbonylamino-4-cyclopropylsulfonylaminocarbonyl-2,15-dioxo-3,16-diaza-10-oxatricyclo-[14.3.0.0^4,6]-nonadec-7-ene] | 160 to 162 | < 100 | < 100
CC(C)(C)OC(=O)N[C@H]1COCCC/C=C\[C@@H]2C[C@@]2(C(=O)NS(=O)(=O)C2CC2)NC(=O)[C@@H]2C[C@@H](OC(=O)c3ccccc3)CN2C1=O [Compound 12, 18-benzoyloxy-14-tert-butoxycarbonylamino-4-cyclopropylsulfonylaminocarbonyl-2,15-dioxo-3,16-diaza-12-oxatricyclo-[14.3.0.0^4,6]-nonadec-7-ene] | 135 to 137 | < 100 | 100 to 1000
